Starred links: 1 amine or outer side, 2 acyl side, 3 side chain; linkers in the order of their positions; H or OH if unused. Non-standard residues stand in square brackets, D forms with d. Residues, ends and D or L forms follow the SMILES beside them. Groups on a side chain read outwards from the residue. ξ: configuration not given here. *: point of attachment. Oic(3aξ,7aξ) = O=C(O)[C@@H]1CC2CCCCC2N1; X1 = N=C(N)NCCCC[C@H](N)CN*; Dab = NCC[C@H](N)C(=O)O; CO = O=C([*:1])[*:2]
Target: T1, VEGF-A165/NRP-1 complex (Homo sapiens, UniProt O14786)
T1 construct: purchased R&D Systems
T1 sequence (O14786 22-641 limits assumed): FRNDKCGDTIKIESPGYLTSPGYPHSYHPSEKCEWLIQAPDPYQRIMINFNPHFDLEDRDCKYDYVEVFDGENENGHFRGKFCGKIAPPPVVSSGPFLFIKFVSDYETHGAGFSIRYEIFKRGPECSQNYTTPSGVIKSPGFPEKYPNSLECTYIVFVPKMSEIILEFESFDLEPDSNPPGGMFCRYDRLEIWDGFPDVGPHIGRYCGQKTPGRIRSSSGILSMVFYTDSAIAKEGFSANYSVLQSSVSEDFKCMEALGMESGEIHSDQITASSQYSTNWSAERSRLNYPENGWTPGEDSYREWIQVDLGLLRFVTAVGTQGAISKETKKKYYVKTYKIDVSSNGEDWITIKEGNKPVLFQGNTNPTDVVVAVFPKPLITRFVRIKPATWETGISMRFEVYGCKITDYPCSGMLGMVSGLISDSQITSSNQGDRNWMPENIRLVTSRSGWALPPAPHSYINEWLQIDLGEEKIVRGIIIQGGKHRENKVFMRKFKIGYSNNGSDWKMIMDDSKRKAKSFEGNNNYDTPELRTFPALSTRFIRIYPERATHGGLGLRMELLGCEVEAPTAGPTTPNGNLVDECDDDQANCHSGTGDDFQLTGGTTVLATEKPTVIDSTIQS
Assay: Competitive ELISA-like assay, inhibition of bt-VEGF-A165 binding to immobilized NRP-1
Settings: recombinant human NRP-1, bt-VEGF-A165, chemiluminescence; read-out: IC50, VEGF-A165/NRP-1 complex inhibitory effect
Method: Inhibitory activity of urea–peptide hybrids against VEGF-A165/NRP-1 complex formation was assessed with a screening ELISA-like assay. NRP-1 was immobilized on microplate wells by simple adsorption and urea–peptide hybrids competed for NRP-1 with biotinylated VEGF-A165 (bt-VEGF-A165). The amount of receptor bound bt-VEGF-A165 was visualized by its interaction with the streptavidin–horseradish peroxidase conjugate (strep-HRP) and the chemiluminescent substrate. The first analyzed group of compounds were analogues 1–3 with the urea bond between L1 and L2. […] The best hybrid in this group was compound 3, which had Lys^U (gDab) branching (where “g” corresponds to guanidinium group), but its IC50 value decreased only 2-fold. Therefore, we assume that no additional interactions between urea bond and the surface of the protein occurred. […] In the case of urea–peptide hybrids, the urea bond might be capable of forming additional hydrogen bonds with protein residues on the surface of NRP-1. The affinity of compounds may conceivably be affected by the colocation of the urea bond and the free amino group of hArg in the branching. In addition, for compounds 4–6, we can observe that decreasing the distance between the free amino group in the main chain and the urea bond in the branching has a positive effect on compounds’ affinity for NRP-1.
This method was previously described for NRP-1 [44, 45, 46]. Briefly, overnight coating at 4 °C of the flat bottom surface of a 96-well plate with 100 μL (200 ng/well) recombinant human NRP-1, NRP-2, VEGFR-1 or VEGFR-2 was followed by non-specific interactions blocking using 0.5% bovine serum albumin (BSA) in PBS. Next, 50 µL of urea–peptide hybrid in PBS and 50 µL (400 ng/mL) of human (bt)-VEGF-A165 in PBS containing 4 µg/mL of heparin were added respectively. Plates were incubated for 2 h at RT, and then washed and treated with streptavidin-horseradish peroxidase conjugate in PBS (1:8000). Next, 100 µL chemiluminescent substrate was added, and luminescence was quantified using Tecan Infinite F200Pro microplate reader (Männedorf, Switzerland). In a positive control (P) only (bt)-VEGF-A165 was present in wells. Not coated by receptor wells were treated as a negative control (N). Percentages of inhibition were calculated by the following formula:100% − [[(S − N)/(P − N)]∙100%](1) where S is the signal intensity measured in wells with urea–peptide hybrid. The IC50 of each urea–peptide hybrid was calculated using the nonlinear regression function with GraphPad Prism Version-5.01 (GraphPad Software, San Diego, CA, USA). Data are presented as log (inhibitor) versus normalized response-variable slope (Figure S16). Data are the means ± SEMs of two or three independent experiments, each performed in triplicate.

Question: For `N=C(N)NCCCC[C@H](N)CNC(=O)NCC[C@H](N)C(=O)N[C@@H](CCN)C(=O)N1C2CCCCC2C[C@H]1C(=O)N[C@@H](CCCNC(=N)N)C(=O)O` (stereo partly drawn) [Compound 6, H-Dab(hArg^U)Dab-Oic-Arg-OH] (H-[Dab]([CO-X1])[Dab][Oic(3aξ,7aξ)]R-OH), which IC50 is on record?
Answer: 190 nM
